According to patent publication US11912737B2, “19-nor neuroactive steroids and methods of use thereof” (Sage Therapeutics, Inc., priority 2013, dated 2024):

Legend:
[1] = target: α1β2γ2 GABAA receptor (Homo sapiens (Human), UniProt P14867+P47870); conditions: for Emax at 10 µM: LTK, read-out: GABA (α1β2γ2) Qpatch in Ltk, % efficacy at 10 μM, Qpatch, Ltk cells, 10 μM compound, 2 μM GABA
Procedure: (§1) LTK cells are stably transfected with the α1β2γ2 subunits of the GABA receptor and CHO cells are transiently transfected with the α4β3δ subunits via the Lipofecatamine method. Cells were passaged at a confluence of about 50-80% and then seeded onto 35 mm sterile culture dishes containing 2 ml culture complete medium without antibiotics or antimycotics.
(§2) Whole cell currents were measured with HEKA EPC-10 amplifiers using PatchMaster software or by using the high throughput QPatch platform (Sophion). […] In some cases 0.005% cremophor was also added. Intracellular (pipette) solution contained: KCl 130 mM, MgCl2 1 mM, Mg-ATP 5 mM, HEPES 10 mM, EGTA 5 mM, pH 7.2. During experiments, cells and solutions were maintained at room temperature (19° C.-30° C.). For manual patch clamp recordings, cell culture dishes were placed on the dish holder of the microscope and continuously perfused (1 ml/min) with bath solution. After formation of a Gigaohm seal between the patch electrodes and the cell (pipette resistance range: 2.5 MΩ-6.0 MΩ; seal resistance range: >1 GΩ) the cell membrane across the pipette tip was ruptured to assure electrical access to the cell interior (whole-cell patch-configuration). For experiments using the QPatch system, cells were transferred as suspension to the QPatch system in the bath solution and automated whole cell recordings were performed.
(§3) Cells were voltage clamped at a holding potential of −80 mV. For the analysis of test articles, GABA receptors were stimulated by 2 μM GABA after sequential pre-incubation of increasing concentrations of the test article. Pre-incubation duration was 30 s and the duration of the GABA stimulus was 2 s. Test articles were dissolved in DMSO to form stock solutions (10 mM). Test articles were diluted to 0.01, 0.1, 1, and 10 μM in bath solution. All concentrations of test articles were tested on each cell. The relative percentage potentiation was defined as the peak amplitude in response to GABA EC20 in the presence of the test article divided by the peak amplitude in response to GABA EC20 alone, multiplied by 100.

[2] = target: [35S]-TBPS binding, rat brain cortical membranes; assay: Steroid inhibition of [35S]-TBPS binding; conditions: 3 nM [35S]-TBPS, in the presence of 5 μM GABA
Procedure: Steroid Inhibition of TBPS Binding
[35S]-t-Butylbicylophorothionate (TBPS) binding assays using rat brain cortical membranes in the presence of 5 μM GABA has been described (Gee et al, J. Pharmacol. Exp. Ther. 1987, 241, 346-353; Hawkinson et al, Mol. Pharmacol. 1994, 46, 977-985; Lewin, A. H et al., Mol. Pharmacol. 1989, 35, 189-194).
Briefly, cortices are rapidly removed following decapitation of carbon dioxide-anesthetized Sprague-Dawley rats (200-250 g). The cortices are homogenized in 10 volumes of ice-cold 0.32 M sucrose using a glass/teflon homogenizer and centrifuged at 1500×g for 10 min at 4° C. The resultant supernatants are centrifuged at 10,000×g for 20 min at 4° C. to obtain the P2 pellets. The P2 pellets are resuspended in 200 mM NaCl/50 mM Na—K phosphate pH 7.4 buffer and centrifuged at 10,000×g for 10 min at 4° C. This washing procedure is repeated twice and the pellets are resuspended in 10 volumes of buffer. Aliquots (100 μL) of the membrane suspensions are incubated with 3 nM [^35S]-TBPS and 5 μL aliquots of test drug dissolved in dimethyl sulfoxide (DMSO) (final 0.5%) in the presence of 5 μM GABA. The incubation is brought to a final volume of 1.0 mL with buffer. Nonspecific binding is determined in the presence of 2 μM unlabeled TBPS and ranged from 15 to 25%. Following a 90 min incubation at room temp, the assays are terminated by filtration through glass fiber filters (Schleicher and Schuell No. 32) using a cell harvester (Brandel) and rinsed three times with ice-cold buffer. Filter bound radioactivity is measured by liquid scintillation spectrometry. Non-linear curve fitting of the overall data for each drug averaged for each concentration is done using Prism (GraphPad).
Various compounds are or can be screened to determine their potential as modulators of [^355]-TBPS binding in vitro. These assays are or can be performed in accordance with the above discussed procedures.

[3] = target: α4β3δ GABAA receptor (Homo sapiens (Human), UniProt P28472+P48169); assay: Patch clamp electrophysiology of recombinant α4β3δ GABAA receptors (CHO cells); conditions: read-out: GABA (α4β3δ) Qpatch in CHO, % efficacy at 10 μM
Procedure: as §1, §2, §3

For C[C@@]1(O)CC[C@H]2[C@H](CC[C@@H]3[C@@H]2CC[C@]2(C)[C@@H](C(=O)CN4CCC(O)C4)CC[C@@H]32)C1 (stereo partly drawn) [Entry 4], the Emax at 10 µM [1] was 100 to 500% and the IC50 [2] was 0.1 to 0.5 µM.

C[C@@]1(O)CC[C@H]2[C@H](CC[C@@H]3[C@@H]2CC[C@]2(C)[C@@H](C(=O)CN4CCN(S(C)(=O)=O)CC4)CC[C@@H]32)C1 [Entry 8] gave an Emax at 10 µM [3] of over 500% and an Emax at 10 µM [1] of over 500%.

Molecule CC(=O)N1CCN(CC(=O)[C@H]2CC[C@H]3[C@@H]4CC[C@H]5C[C@](C)(O)[C@@H](C)C[C@@H]5[C@H]4CC[C@]23C)CC1 [Entry 27] has an Emax at 10 µM [3] of 100 to 500% and an Emax at 10 µM [1] of 100 to 500%.

For C[C@H]1C[C@H]2[C@@H](CC[C@@H]3[C@@H]2CC[C@]2(C)[C@@H](C(=O)CN4CCOCC4)CC[C@@H]32)C[C@]1(C)O [Entry 45], the Emax at 10 µM [3] was over 500% and the Emax at 10 µM [1] was 10 to 100%.

C[C@]12CC[C@H]3[C@@H](CC[C@@H]4C[C@@](O)(CF)CC[C@@H]43)[C@@H]1CC[C@@H]2C(=O)CN1CCOCC1 [Entry 55] showed an Emax at 10 µM [1] of 10 to 100%.

In the case of C[C@]12CC[C@H]3[C@@H](CC[C@@H]4C[C@@](O)(C(F)F)CC[C@@H]43)[C@@H]1CC[C@@H]2C(=O)CN1CCN(S(C)(=O)=O)CC1 [Entry 56], the Emax at 10 µM [1] is reported as 100 to 500%.

For COC[C@@]1(O)CC[C@H]2[C@@H](CC[C@@H]3[C@@H]2CC[C@]2(C)[C@@H](C(=O)CN4CCN(S(C)(=O)=O)CC4)CC[C@@H]32)C1 [Entry 57], the “GABA (α1β2γ2) Qpatch in Ltk, % efficacy at 10 μM” value ([1]; Qpatch, Ltk cells, 10 μM compound, 2 μM GABA) was “C (“C” ≥500)”.

Work on C[C@@]1(O)CC[C@H]2[C@H](CC[C@@H]3[C@@H]2CC[C@]2(C)[C@@H](C(=O)CN4CCCOCC4)CC[C@@H]32)C1 [Entry 58] yielded an Emax at 10 µM [1] of over 500%.
